Reference: PMC11311697, “Exploring the Role of Neuropeptide PACAP in Cytoskeletal Function Using Spectroscopic Methods” (International Journal of Molecular Sciences, 2024)
Ends that are not written are not given here.

How the values were obtained:
G-actin = G-actin (Oryctolagus cuniculus, UniProt P68135); assay: Steady-state anisotropy of Alexa488NHS-labeled G-actin with PACAP; format: binding, rabbit; details: 0.2 µM A488NHS-labeled G-actin; PACAP 0 to 5 µM; 50 mM KCl, 1 mM MgCl2, 4 μM LatA, 1 mM EGTA, G-buffer pH 7.8; 20 °C; ex 488 nm; mean ± SD, at least three independent experiments; read-out: dissociation equilibrium constant (KD), in Figure 3
Experimental: Actin was prepared from acetone-dried muscle powder from rabbit skeletal muscle according to the method of Spudich and Watt modified by Mossakowska et al.. Shortly, the acetone-dried powder was extracted in G-buffer (4 mM TRIS (Sigma-Aldrich, Saint Louis, MO, USA), 0.1 mM CaCl2 (Sigma-Aldrich, Saint Louis, MO, USA), 0.2 mM ATP (VWR International LLC, Radnor, PA, USA), 0.5 mM DTT (VWR International LLC, Radnor, PA, USA), pH 7.8), mixed on ice with a magnetic stirrer (30 min, 80 rpm). The mixture was filtered through quadruple-layered gauze, supplemented with additional G-buffer, mixed further (40 min, 80 rpm), filtered again, and centrifuged (30,000 rpm, 4 °C, 30 min). […] After clarification centrifugation (80,000 rpm, 30 min, 4 °C), the supernatant was removed and actin absorbance was measured using a spectrophotometer to determine its concentration. […]
For our investigation, we utilized A488NHS green-fluorescent dye, which remains stable between pH 4 and 10, with peak emission when excited at 488 nm. […] In vitro anisotropy and fluorescence emission measurements involved 0.2 µM Alexa488NHS-Mg^2+-ATP-G-actin (Alexa488NHS labeled G-actin) with varying PACAP concentrations. […] The cuvette (Hellma® fluorescence, ultra Micro, Suprasil® quartz, spectral range 200–2500 nm) had optical path lengths of ex = 10 mm/em = 2 mm. […]

Ca^2+-F-actin = test system: Ca^2+-F-actin; set-up: method as in doi:10.1007/s10973-024-13286-2, doi:10.1007/s10973-024-13289-z; details: DSC; ref [81],[82]; cited from earlier work
[1] = test system: Ca^2+-G actin and Ca^2+-F actin; details: DSC; ref [81],[82]; cited from earlier work
Text: In previous investigations, we employed differential scanning calorimetry (DSC) to explore the impact of various PACAP fragments on the thermal stability of Ca^2+-G actin and Ca^2+-F actin.

[2] = test system: streptozotocin-induced diabetes model; set-up: method as in PMID 34639032; details: ref [76]; cited from earlier work
caspase-3 = details: ref [1],[79]; cited from earlier work
Text: (§1) As mentioned above, PACAP plays a significant role in mitigating neuronal damage and promoting cell survival. […] The misfolding and aggregation of proteins such as Tau are hallmarks of neurodegenerative diseases like Alzheimer’s.

Tau = details: ref [1],[79]; cited from earlier work
Text: as §1

[3] = test system: adenylate cyclase, rat pituitary cells; details: versus VIP, ref [2]; cited from earlier work
Text: Pituitary adenylate cyclase-activating polypeptide (PACAP) was first isolated from the sheep hypothalamus in 1989 [1, 2]. It belongs to the vasoactive intestinal peptide (VIP)/glucagon/secretin peptide family, sharing 68% structural homology with VIP, but stimulating adenylate cyclase activity 1000 times more effectively in rat pituitary cells. PACAP plays crucial roles in the nervous and endocrine systems, acting as a hormone, neurotransmitter, vasodilator, and neuromodulator, and potentially having neurotrophic or neuroprotective functions. PACAP exists in two biologically ...

astrocyte = details: by increasing cAMP levels; ref [57]; cited from earlier work
Text: The polymerization of G-actin into filamentous actin (F-actin) is essential for maintaining cellular structural integrity and supporting dynamic processes. Actin filaments, which form the cell’s cytoskeleton, provide mechanical strength and stability. The F-actin network supports various cellular functions, including cell migration, division, and intracellular transport, by continuously polymerizing and depolymerizing. The dynamic nature of F-actin allows cells to adapt to environmental changes and respond to signals, interacting with regulatory proteins to influence membrane protr ...

[4] = test system: dihydropyrimidinase like 2 (DPYL2); details: ischemic brain tissue; ref [43],[44]; cited from earlier work
Text: (§2) PACAP synergizes with multiple factors to promote neurite growth in different cell lines. It works with nerve growth factor (NGF) and VIP to stimulate neuritogenesis, increasing neurite length and branching, similar to brain-derived neurotrophic factor (BDNF). […] In traumatic central nervous system (CNS) injuries, PACAP has cytoprotective and antiapoptotic effects. It increases dihydropyrimidinase li ...

[5] = test system: neurite growth in different cell lines; details: ref [40],[41],[42]; cited from earlier work
Text: as §2

[6] = test system: traumatic brain injury (TBI); details: intracerebroventricular (icv); brain regions such as corticospinal tract and medial longitudinal fasciculus; ref [45],[46]; cited from earlier work
Text: as §2

PAC1 receptor = details: ref [7],[8]; cited from earlier work
Text: PACAP can bind to VPAC1 (VIP receptor type 1) and VPAC2 (VIP receptor […]) receptors, which also bind VIP, due to their structural similarity. […] The high specificity of PAC1 receptors for PACAP makes them ideal for studying PACAP–receptor interactions. PAC1 receptors, being GS protein-coupled receptors (GPCRs ...

CSCC[C@H](NC(=O)[C@H](CCC(N)=O)NC(=O)[C@H](CCCCN)NC(=O)[C@H](CCCNC(=N)N)NC(=O)[C@H](Cc1ccc(O)cc1)NC(=O)[C@H](CCCNC(=N)N)NC(=O)[C@H](CO)NC(=O)[C@H](Cc1ccc(O)cc1)NC(=O)[C@H](CO)NC(=O)[C@H](CC(=O)O)NC(=O)[C@@H](NC(=O)[C@@H](N)Cc1ccccc1)[C@@H](C)O)C(=O)N[C@@H](C)C(=O)N[C@H](C(=O)N[C@@H](CCCCN)C(=O)N[C@@H](CCCCN)C(=O)N[C@@H](Cc1ccc(O)cc1)C(=O)N[C@@H](CC(C)C)C(=O)N[C@@H](C)C(=O)N[C@@H](C)C(=O)N[C@H](C(=O)N[C@@H](CC(C)C)C(=O)NCC(=O)N[C@@H](CCCCN)C(=O)N[C@@H](CCCNC(=N)N)C(=O)N[C@@H](Cc1ccc(O)cc1)C(=O)N[C@@H](CCCCN)C(=O)N[C@@H](CCC(N)=O)C(=O)N[C@@H](CCCNC(=N)N)C(=O)N[C@H](C(=O)N[C@@H](CCCCN)C(=O)N[C@@H](CC(N)=O)C(=O)N[C@@H](CCCCN)C(N)=O)C(C)C)C(C)C)C(C)C [PACAP6-38]
Kd (G-actin): 150.46 ± 0.03 nM

CC[C@H](C)[C@H](NC(=O)CNC(=O)[C@H](CC(=O)O)NC(=O)[C@H](CO)NC(=O)[C@@H](N)Cc1cnc[nH]1)C(=O)N[C@@H](Cc1ccccc1)C(=O)N[C@H](C(=O)N[C@@H](CC(=O)O)C(=O)N[C@@H](CO)C(=O)N[C@@H](Cc1ccc(O)cc1)C(=O)N[C@@H](CO)C(=O)N[C@@H](CCCNC(=N)N)C(=O)N[C@@H](Cc1ccc(O)cc1)C(=O)N[C@@H](CCCNC(=N)N)C(=O)N[C@@H](CCCCN)C(=O)N[C@@H](CCC(N)=O)C(=O)N[C@@H](CCSC)C(=O)N[C@@H](C)C(=O)N[C@H](C(=O)N[C@@H](CCCCN)C(=O)N[C@@H](CCCCN)C(=O)N[C@@H](Cc1ccc(O)cc1)C(=O)N[C@@H](CC(C)C)C(=O)N[C@@H](C)C(=O)N[C@@H](C)C(=O)N[C@H](C(=O)N[C@@H](CC(C)C)C(=O)NCC(=O)N[C@@H](CCCCN)C(=O)N[C@@H](CCCNC(=N)N)C(=O)N[C@@H](Cc1ccc(O)cc1)C(=O)N[C@@H](CCCCN)C(=O)N[C@@H](CCC(N)=O)C(=O)N[C@@H](CCCNC(=N)N)C(=O)N[C@H](C(=O)N[C@@H](CCCCN)C(=O)N[C@@H](CC(N)=O)C(=O)N[C@@H](CCCCN)C(N)=O)C(C)C)C(C)C)C(C)C)[C@@H](C)O [PACAP38, Pituitary adenylate cyclase-activating polypeptide 38]
Kd (G-actin): 97.22 ± 0.01 nM

PACAP6-27: PACAP fragment examined by DSC in earlier studies (FTDSYSRYRKQMAVKKYLAAVL; ends and bridges not checked; UniProt P18509 137-158, looked up, fragment)
denaturation temperature of Ca2+-F-actin compared with control (in words) (Ca^2+-F-actin): did not show significant changes | effect on thermal properties of actin (in words) [1]: altered the thermal stability of actin, albeit to a lesser degree

Pituitary adenylate cyclase-activating polypeptide [PACAP]
effect on morphological signs of nerve injury and hyperalgesia (in words) [2]: reduced morphological signs of nerve injury (axon–myelin separation, elevated mitochondrial number in myelinated axons, unmyelinated fiber atrophy, and basement membrane thickening of endoneurial vessels) while also attenuating pressure and touch hyperalgesia | effect on caspase-3 activity (in words) (caspase-3): inhibits caspase-3 activity | effect on Tau phosphorylation (in words) (Tau): enhances Tau phosphorylation and prevents its dephosphorylation | stimulation of adenylate cyclase activity relative to VIP [3]: 1000 times | effect on actomyosin stress fibers (in words) (astrocyte): promotes actomyosin stress fiber depolymerization | effect on DPYL2 protein levels (in words) [4]: increases dihydropyrimidinase like 2 (DPYL2) protein levels in ischemic brain tissue | effect on axon growth / neurite growth (in words) [5]: enhances axon length and cell body size but does not affect dendrite length | effect on axonal swellings and amyloid plaque accumulation (in words) [6]: reduces axonal swellings and amyloid plaque accumulation

vasoactive intestinal peptide [VIP]
binding to PAC1 receptor (in words) (PAC1 receptor): low affinity
